Here are results for three molecules from patent publication US12440487B2, “Method of normalizing the neutrophil to lymphocyte ratio in cancer patients with a selective glucocorticoid receptor antagonist” (Corcept Therapeutics Incorporated, priority 2019, dated 2025).

The test system of assay [1] is neutrophil or lymphocyte abundance in the blood. The note with it: healthy men / healthy subjects; cited from earlier work.
Assay [2] has as its target glucocorticoid receptor (GR) (Homo sapiens, UniProt P04150). The note with it: binds to GR, PR and AR; cited from earlier work.
Assay [3] relates to neutrophil-to-lymphocyte ratio (NLR). Briefly: Prednisone-challenge NLR study in healthy subjects (NCT03508635, SAD and MAD cohorts). In kind it is in vivo, human. How it is done: Methods: Lymphocyte and neutrophil abundance were determined using standard differential complete blood count tests.
(§1) Healthy subjects were enrolled in the NCT03508635 study of relacorilant. […] (C) is the Figure legend.
(§2) The intensive NLR sampling was conducted at time 0 (morning, pre-dose) and then 2, 4, 8, 12, and 24 hours thereafter. The single NLR samples were collected in the in the morning, pre-dose. The SAD portion of this experiment used a 500 mg dose while the MAD used a once daily 250 mg dose.
(§3) Blood was also drawn in the morning, pre-dose.

Assay [4] shares this test system. The assay is described as follows: 7-day single-agent relacorilant lead-in, NLR in patients with advanced solid tumors (NCT02762981). In kind it is in vivo, human. The note with it: for patients who experienced a decrease in NLR / average change in NLR: 7-day relacorilant lead-in. How it is done: The relacorilant lead-in included daily dosing of relacorilant alone (without nab-paclitaxel) for 7 days.
Drug concentrations were determined in study NCT02762981. Blood was collected at multiple timepoints on day 7 of relacorilant dosing. Upon collection, blood was chelated with EDTA, centrifuged, and plasma was aliquoted. Bioanalytical analyses were conducted by MicroConstants (San Diego, CA, USA). In brief, human plasma samples containing relacorilant and its stable-labeled analog as an internal standard and K3EDTA as the anticoagulant were buffered with an ammonium citrate solution and extracted with 2-butanol:hexane (2.5:97.5, v/v). The samples were vortex mixed, centrifuged and the lower portion was frozen in an ultra-cold freezer. The organic portion was transferred to a clean tube and evaporated under nitrogen. The extracts were dried, reconstituted and analyzed by reversed-phase HPLC using an ACE UltraCore SuperPhenylHexyl column. The mobile phase was nebulized using heated nitrogen in a Z-spray source/interface set to electrospray positive ionization mode. The ionized compounds were detected using MS/MS.
as §3

For assay [5] the test system is unchanged. The assay is described as follows: Relacorilant alone, NLR in healthy subjects (NCT03508635). In kind it is in vivo, human. The note with it: 250 mg for 14 continuous days, cohort of 7 healthy subjects, none with baseline NLR greater than 3. As for the experimental part: as §1, §2, §3
The normalization of the NLR by relacorilant is thought to occur through antagonism of endogenous cortisol. If patients have elevated cortisol activity, relacorilant would be expected to normalize this activity. Alternatively, relacorilant alone could cause neutropenia (reduction in neutrophils) or lymphocytosis (increase in lymphocytes) via antagonism of normal endogenous cortisol. To distinguish these two possibilities, we assessed the effects of relacorilant alone in healthy subject with normal endogenous cortisol. After 14 administering 250 mg of relacorilant for 14 continuous days, no change in the NLR was observed across a cohort of 7 healthy subjects (FIG. 7).

The target in assay [6] is T1, progesterone receptor (Homo sapiens, UniProt P06401).
T1 sequence (P06401 1-933): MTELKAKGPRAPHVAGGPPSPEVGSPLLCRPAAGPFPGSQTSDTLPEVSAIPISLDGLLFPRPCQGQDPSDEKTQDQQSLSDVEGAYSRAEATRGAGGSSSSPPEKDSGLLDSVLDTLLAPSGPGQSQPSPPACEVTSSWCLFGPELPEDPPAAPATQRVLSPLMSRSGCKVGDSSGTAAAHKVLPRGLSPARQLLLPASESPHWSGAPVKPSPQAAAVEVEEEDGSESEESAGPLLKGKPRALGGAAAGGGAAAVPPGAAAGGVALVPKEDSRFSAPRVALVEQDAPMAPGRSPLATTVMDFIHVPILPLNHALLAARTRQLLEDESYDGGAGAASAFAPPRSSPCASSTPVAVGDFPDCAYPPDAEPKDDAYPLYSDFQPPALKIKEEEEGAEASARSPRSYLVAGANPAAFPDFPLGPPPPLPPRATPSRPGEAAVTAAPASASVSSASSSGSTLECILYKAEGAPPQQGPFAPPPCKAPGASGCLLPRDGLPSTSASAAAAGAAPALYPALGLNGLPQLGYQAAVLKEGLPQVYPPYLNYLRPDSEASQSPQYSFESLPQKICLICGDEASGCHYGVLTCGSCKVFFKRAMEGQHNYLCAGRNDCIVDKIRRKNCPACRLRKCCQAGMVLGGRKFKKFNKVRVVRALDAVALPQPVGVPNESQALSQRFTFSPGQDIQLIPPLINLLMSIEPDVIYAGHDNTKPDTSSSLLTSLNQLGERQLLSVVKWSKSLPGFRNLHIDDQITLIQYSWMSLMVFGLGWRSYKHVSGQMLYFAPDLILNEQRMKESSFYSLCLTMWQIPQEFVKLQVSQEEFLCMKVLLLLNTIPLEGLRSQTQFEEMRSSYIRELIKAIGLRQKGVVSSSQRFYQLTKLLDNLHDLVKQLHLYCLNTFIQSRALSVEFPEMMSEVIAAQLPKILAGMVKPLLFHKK
The note with it: cited from earlier work.

“And” between values parts separate entries of the source, which are not always exact repeats. Identical values can stand only once. “Also recorded” adds a separate entry of the source.

glucocorticoid receptor (GR), sequence (P04150 whole entry, species assumed): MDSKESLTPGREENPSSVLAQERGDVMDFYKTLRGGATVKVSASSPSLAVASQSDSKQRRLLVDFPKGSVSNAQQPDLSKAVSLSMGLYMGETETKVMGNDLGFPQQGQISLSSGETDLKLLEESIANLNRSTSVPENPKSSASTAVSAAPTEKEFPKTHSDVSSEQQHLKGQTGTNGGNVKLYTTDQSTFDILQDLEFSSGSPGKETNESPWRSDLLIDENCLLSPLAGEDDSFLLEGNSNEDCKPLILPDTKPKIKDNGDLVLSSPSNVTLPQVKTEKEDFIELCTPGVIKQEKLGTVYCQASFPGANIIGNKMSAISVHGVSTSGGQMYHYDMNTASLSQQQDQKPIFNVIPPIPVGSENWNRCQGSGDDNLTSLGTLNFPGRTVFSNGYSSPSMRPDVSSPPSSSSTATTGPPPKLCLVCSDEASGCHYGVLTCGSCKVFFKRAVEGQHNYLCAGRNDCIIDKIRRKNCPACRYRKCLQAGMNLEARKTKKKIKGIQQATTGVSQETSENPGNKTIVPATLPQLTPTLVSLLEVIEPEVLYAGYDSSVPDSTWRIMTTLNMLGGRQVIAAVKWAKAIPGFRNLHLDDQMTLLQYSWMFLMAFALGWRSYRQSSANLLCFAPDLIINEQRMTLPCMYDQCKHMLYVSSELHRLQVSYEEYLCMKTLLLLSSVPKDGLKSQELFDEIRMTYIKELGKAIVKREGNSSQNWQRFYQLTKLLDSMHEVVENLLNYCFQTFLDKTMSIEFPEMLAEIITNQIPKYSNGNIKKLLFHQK

As for `CC#C[C@]1(O)CC[C@H]2[C@@H]3CCC4=CC(=O)CCC4=C3[C@@H](c3ccc(N(C)C)cc3)C[C@@]21C` [mifepristone, 11β-(4-dimethylaminophenyl)-17β-hydroxy-17α-(1-propynyl)-estra-4,9-dien-3-one], the “effect on neutrophil or lymphocyte abundance in the blood” value in assay [1] is on record as “does not alter”. Further, the “selectivity for GR” value in assay [2] is recorded as “not selective”.
As to `C[C@]12C=CC(=O)C=C1CC[C@@H]1[C@@H]2C(=O)C[C@@]2(C)[C@H]1CC[C@]2(O)C(=O)CO` [prednisone, 17α,21-dihydroxypregna-1,4-diene-3,11,20-trione, reference compound], the “NLR area under the curve” value in assay [3] (25 mg prednisone after 14 consecutive days of placebo, different subjects) is reported as 72 NLR*hr; in assay [3] (MAD cohort, 25 mg prednisone alone, same subjects on Day −5), 61.7 NLR*hr; in assay [3] (SAD cohort, 25 mg prednisone alone), 54.6 NLR*hr. The “NLR at 8 hours post prednisone” value in assay [3] (9 healthy subjects, single dose 25 mg prednisone, baseline less than 2, returned to baseline after 24 hours) is given as “greater than 6”. Further, the “acute increase of the neutrophil-to-lymphocyte ratio (NLR)” value in assay [3] (healthy subjects (n=9), 25 mg prednisone) was found to be 4.7 fold.
For `Cn1cc(S(=O)(=O)N2CCC3=Cc4c(cnn4-c4ccc(F)cc4)C[C@]3(C(=O)c3cc(C(F)(F)F)ccn3)C2)cn1` [relacorilant, (R)-(1-(4-fluorophenyl)-6-((1-methyl-1H-pyrazol-4-yl)sulfonyl)-4,4a,5,6,7,8-hexahydro-1H-pyrazolo[3,4-g]isoquinolin-4a-yl)(4-(trifluoromethyl)pyridin-2-yl)methanone], the “patients who experienced a decrease in NLR” value in assay [4] (patients with AUC between 2011-8000 ng*hr/ml (6/13)) is listed as 46%; in assay [4] (patients with AUC<2011 ng*hr/ml or Cmax<442 ng/ml), “None”; in assay [4] (patients with Cmax between 442-1000 ng/ml (6/9)), 67%. In addition, the “average change in NLR” value is on record as −6.1% in assay [4] (patients with AUC between 3740-8000 ng*hr/ml) and −4.4% in assay [4] (patients with Cmax between 595-836 ng/ml). Besides, in assay [4] (ovarian cancer patient 038-4004, 7-day relacorilant lead-in), the “NLR change from baseline (CfB)” value is −46% and −55%. Also, the “NLR after relacorilant lead-in” value in assay [4] (ovarian cancer patient 038-4004, 7-day relacorilant lead-in, NLR before 5.5) is given as 2.5. Besides, the “effect on prednisone-induced NLR increase” value in assay [3] (14 consecutive days of 250 mg/day relacorilant, then 25 mg prednisone, healthy subjects) is on record as “significantly blunted; also recorded: reversed the effects”; in assay [3] (relacorilant co-administration with 25 mg prednisone, healthy subjects (n=9)), “reversed this effect”; in assay [3] (single 500 mg dose relacorilant with 25 mg prednisone, healthy subjects), “significantly blunted; also recorded: reversed the effects”. Also, the “NLR area under the curve” value is reported as 9.6 NLR*hr in assay [3] (MAD cohort, 25 mg prednisone after 14 consecutive days of 250 mg/day relacorilant) and 12.5 NLR*hr in assay [3] (SAD cohort, single 500 mg dose relacorilant administered with 25 mg prednisone). For the same molecule, in assay [5], the “change in the NLR with relacorilant alone” value is “no change; also recorded: does not change”. For the same molecule, the “antagonism of the progesterone receptor” value in assay [6] is “does not antagonize”.
